Laboratory results taken from ChEMBL document CHEMBL6120986, “In silico inspired design of urea noscapine congeners as anticancer agents: Chemical synthesis and experimental evaluation using breast cancer cells and a xenograft mouse model” (Eur J Med Chem, 2025).
Values belong to the compound of their own block, whether it stands above or below them. Activity calls are given as the source filed them. The calls are words filed in the database; no cut-off is given here.

Columns and labels:
MCF7 [1] = test: Antiproliferative activity against human MCF7 cells assessed as inhibition of cell proliferation incubated for 72 hrs by SRB assay; type: functional, cell-based; conditions: MCF7, 72 h
MDA-MB-231 [2] = test: Antiproliferative activity against human MDA-MB-231 cells assessed as inhibition of cell proliferation incubated for 72 hrs by SRB assay; type: functional, cell-based; conditions: MDA-MB-231, 72 h
[3] = Cytotoxicty against HEK cells incubated for 72 hrs by SRB assay; type: toxicity, cell-based; conditions: human
Capra hircus = organism: Capra hircus; test: Binding affinity to goat brain tubulin assessed as tryptophan fluorescence change incubated for 45 mins by tryptophan quenching assay; conditions: dose 50-200 µM
[4] = Binding affinity in goat brain tubulin assessed as equilibrium dissociation constant incubated for 45 mins by fluorescence titration method; design: species or system Capra hircus
MDA-MB-231 [5] = test: Inhibition of colony formation in human MDA-MB-231 cells incubated for 24 hrs by crystal violet staining based colony formation assay; type: functional, cell-based; conditions: dose 1-20 µM
MDA-MB-231 [6] = test: Induction of apoptosis in human MDA-MB-231 cells assessed as membrane blebbing at 6.65 uM (IC50) measured after 72 hrs by fluorescence microscopic analysis; type: functional, cell-based
MDA-MB-231 [7] = test: Induction of apoptosis in human MDA-MB-231 cells assessed as increase in fragmented nuclei at 6.65 uM (IC50) measured after 72 hrs by fluorescence microscopic analysis; type: functional, cell-based
MDA-MB-231 [8] = test: Induction of apoptosis in human MDA-MB-231 cells assessed as formation of apoptotic bodies at 6.65 uM (IC50) measured after 72 hrs by fluorescence microscopic analysis; type: functional, cell-based
MDA-MB-231 [9] = test: Induction of apoptosis in human MDA-MB-231 cells assessed as early apoptotic cells at 6.56 uM incubated for 72 hrs by Annexin/FITC based FACS analysis (reference value: 2%); type: functional
MDA-MB-231 [10] = test: Induction of apoptosis in human MDA-MB-231 cells assessed as late apoptotic cells at 6.56 uM incubated for 72 hrs by Annexin/FITC based FACS analysis (reference value: 3%); type: functional
MDA-MB-231 [11] = test: Induction of apoptosis in human MDA-MB-231 cells assessed as increase in TUNEL positive nuclei at 6.56 uM by TUNEL assay relative to control; type: functional, cell-based
MDA-MB-231 [12] = test: Induction of intracellular ROS generation in human MDA-MB-231 cells assessed as increase in fluorescence intensity at 6.56 uM incubated for 48 hrs by H2DCFDA fluorescence assay; type: functional, cell-based
MDA-MB-231 [13] = test: Induction of cell cycle arrest in human MDA-MB-231 cells assessed as increase in accumulation of cells at G2/M phase at 6.65 uM incubated for 72 hrs by PI staining based FACS analysis relative to control; type: functional
MDA-MB-231 [14] = test: Induction of cell cycle arrest in human MDA-MB-231 cells assessed as accumulation of hypodiploid cells at sub-G1 phase at 6.65 uM IC50 incubated for 72 hrs by FACS analysis; type: functional, cell-based
Mitochondrial membrane [15] = test: Induction of mitochondrial membrane potential loss in human MDA-MB-231 cells assessed as decrease in red fluorescence incubated for 48 hrs by JC-1 staining based fluorescence microscopic analysis; type: cell membranes
Mitochondrial membrane [16] = test: Induction of mitochondrial membrane potential loss in human MDA-MB-231 cells assessed as increase in blue fluorescence incubated for 48 hrs by […] staining based fluorescence microscopic analysis; type: cell membranes
Mitochondrial membrane [17] = test: Induction of mitochondrial membrane potential loss in human MDA-MB-231 cells assessed as increase in green fluorescence incubated for 48 hrs by rhodamine-123 staining based fluorescence microscopic analysis; type: cell membranes
MCF7 [18] = test: Antitumor activity against human MCF7 cells xenografted in BALB/c athymic mouse assessed as reduction in tumor volume at 150 mg/kg, po administrated for 30 days (reference value: 1.63 cm^3); type: functional; conditions: time 30 day
[19] = Toxicity in BALB/c athymic mouse xenografted with human MCF-7 cells assessed as change in body weight at 150 mg/kg, po administrated daily for 30 days; type: organism-based; conditions: in vivo, 720 h, time 30 day
[20] = Toxicity in BALB/c athymic mouse assessed as effect on hepatic lobules morphology at 150 mg/kg, po by Hematoxylin and eosin staining based analysis; type: organism-based; conditions: in vivo
[21] = Toxicity in BALB/c athymic mouse assessed as effect on glomeruli morphology at 150 mg/kg, po by Hematoxylin and eosin staining based analysis; type: organism-based; conditions: in vivo
[22] = Toxicity in BALB/c athymic mouse assessed as effect on proximal tubules morphology at 150 mg/kg, po by Hematoxylin and eosin staining based analysis; type: organism-based; conditions: in vivo
[23] = Toxicity in BALB/c athymic mouse assessed as effect on distal tubules morphology at 150 mg/kg, po by Hematoxylin and eosin staining based analysis; type: organism-based; conditions: in vivo
[24] = Toxicity in BALB/c athymic mouse assessed as effect on interstitium morphology at 150 mg/kg, po by Hematoxylin and eosin staining based analysis; type: organism-based; conditions: in vivo
[25] = Toxicity in BALB/c athymic mouse assessed as effect on blood arteries morphology at 150 mg/kg, po by Hematoxylin and eosin staining based analysis; type: organism-based; conditions: in vivo
[26] = Toxicity in BALB/c athymic mouse assessed as effect on cerebral cortex morphology at 150 mg/kg mg/kg, po by Hematoxylin and eosin staining based analysis; type: organism-based; conditions: in vivo
[27] = Toxicity in BALB/c athymic mouse assessed as effect on alveoli morphology at 150 mg/kg mg/kg, po by Hematoxylin and eosin staining based analysis; type: organism-based; conditions: in vivo
[28] = Toxicity in female BALB/c athymic mouse assessed as effect on bronchial morphology at 150 mg/kg, po by Hematoxylin and eosin staining based analysis; type: organism-based; conditions: in vivo
[29] = Toxicity in female BALB/c athymic mouse assessed as AST level at 150 mg/kg/day, po (reference value: 105.92 +/- 6.41 U/L); type: organism-based; conditions: in vivo
[30] = Toxicity in female BALB/c athymic mouse assessed as creatinine level at 150 mg/kg/day, po (reference value: 0.690 +/- 0.05 mg/dl); type: organism-based; conditions: in vivo
[31] = Toxicity in female BALB/c athymic mouse assessed as ALT level at 150 mg/kg/day, po (reference value: 29.79 +/- 3.15 U/L); type: organism-based; conditions: in vivo
[32] = Toxicity in female BALB/c athymic mouse assessed as ALK PHOS level at 150 mg/kg/day, po (reference value: 78.59 +/- 5.85 U/L); type: organism-based; conditions: in vivo
[33] = Toxicity in female BALB/c athymic mouse assessed as BUN level at 150 mg/kg/day, po (reference value: 10.19 +/- 2.68 mg/dl); type: organism-based; conditions: in vivo
[34] = Toxicity in female BALB/c athymic mouse assessed as bilirubin total level at 150 mg/kg/day, po (reference value: 0.673 +/- 0.01 mg/dl); type: organism-based; conditions: in vivo
[35] = Toxicity in female BALB/c athymic mouse assessed as bilirubin direct level at 150 mg/kg/day, po (reference value: 0.298 +/- 0.07 mg/dl); type: organism-based; conditions: in vivo
[36] = Toxicity in female BALB/c athymic mouse assessed as bilirubin indirect level at 150 mg/kg/day, po (reference value: 3.05 +/- 0.32 mg/dl); type: organism-based; conditions: in vivo
[37] = Toxicity in female BALB/c athymic mouse assessed as albumin level at 150 mg/kg/day, po (reference value: 6.31 +/- 0.41 g/dl); type: organism-based; conditions: in vivo
[38] = Toxicity in female BALB/c athymic mouse assessed as total protein level at 150 mg/kg/day, po (reference value: 6.88 +/- 0.15 g/dl); type: organism-based; conditions: in vivo
[39] = Toxicity in female BALB/c athymic mouse assessed as monocyte count at 150 mg/kg/day, po (reference value: 0.39 +/- 0.03 %); type: organism-based; conditions: in vivo
[40] = Toxicity in female BALB/c athymic mouse assessed as eosinophil count at 150 mg/kg/day, po (reference value: 0.84 +/- 0.04 %); type: organism-based; conditions: in vivo
[41] = Toxicity in female BALB/c athymic mouse assessed as glucose level at 150 mg/kg/day, po (reference value: 98.47 +/- 3.29 mg/dl); type: organism-based; conditions: in vivo
[42] = Toxicity in female BALB/c athymic mouse assessed as calcium level at 150 mg/kg/day, po (reference value: 8.73 +/- 0.10 mg/dl); type: organism-based; conditions: in vivo
[43] = Toxicity in female BALB/c athymic mouse assessed as sodium level at 150 mg/kg/day, po (reference value: 144.51 +/- 0.85 mEq/L); type: organism-based; conditions: in vivo
[44] = Toxicity in female BALB/c athymic mouse assessed as potassium level at 150 mg/kg/day, po (reference value: 3.30 +/- 0.83 mEq/L); type: organism-based; conditions: in vivo
[45] = Toxicity in female BALB/c athymic mouse assessed as Chlorine level at 150 mg/kg/day, po (reference value: 105.63 +/- 4.46 mEq/L); type: organism-based; conditions: in vivo
[46] = Toxicity in female BALB/c athymic mouse assessed as WBC count at 150 mg/kg/day, po (reference value: 4.50 +/- 2.20 10^3/uL); type: organism-based; conditions: in vivo
[47] = Toxicity in female BALB/c athymic mouse assessed as RBC count at 150 mg/kg/day, po (reference value: 5.84 +/- 0.30 10^6/uL); type: organism-based; conditions: in vivo
[48] = Toxicity in female BALB/c athymic mouse assessed as hemoglobin concentration at 150 mg/kg/day, po (reference value: 16.59 +/- 0.60 g/dl); type: organism-based; conditions: in vivo
[49] = Toxicity in female BALB/c athymic mouse assessed as hematocrit at 150 mg/kg/day, po (reference value: 41.34 +/- 0.30 %); type: organism-based; conditions: in vivo
[50] = Toxicity in female BALB/c athymic mouse assessed as mean corpuscular volume at 150 mg/kg/day, po (reference value: 53.06 +/- 0.06 fL); type: organism-based; conditions: in vivo
[51] = Toxicity in female BALB/c athymic mouse assessed as mean corpuscular hemoglobin measured per cell at 150 mg/kg/day, po (reference value: 28.62 +/- 0.08 pg/cell); type: organism-based; conditions: in vivo
[52] = Toxicity in female BALB/c athymic mouse assessed as mean corpuscular hemoglobin concentration at 150 mg/kg/day, po (reference value: 35.86 +/- 0.24 g/dl); type: organism-based; conditions: in vivo
[53] = Toxicity in female BALB/c athymic mouse assessed as platelet at 150 mg/kg/day, po (reference value: 95.11 +/- 7.23 10^3/uL); type: organism-based; conditions: in vivo

IC50 (MCF7 [1]): 27.7 µM | IC50 (MDA-MB-231 [2]): 35.7 µM
Compound: COc1ccc2c(c1OC)C(=O)O[C@@H]2[C@H]1c2c(c(NC(=O)Nc3c(Cl)cc(Cl)cc3Cl)c3c(c2OC)OCO3)CCN1C
IC50 at 72 h [3]: 293 µM

IC50 (MCF7 [1]): 36.1 µM | IC50 (MDA-MB-231 [2]): 48.1 µM
Compound: COc1cc(NC(=O)Nc2c3c(c(OC)c4c2OCO4)[C@H]([C@H]2OC(=O)c4c2ccc(OC)c4OC)N(C)CC3)cc(OC)c1OC
IC50 at 72 h [3]: 294 µM

IC50 (MCF7 [1]): 37.9 µM | IC50 (MDA-MB-231 [2]): 48.5 µM
Compound: COc1ccc2c(c1OC)C(=O)O[C@@H]2[C@H]1c2c(c(NC(=O)Nc3cccc(F)c3)c3c(c2OC)OCO3)CCN1C
IC50 at 72 h [3]: 292 µM

Activity (Capra hircus): Dose-dependent-effect | Kd [4]: 42 µM | IC50 (MCF7 [1]): 4.77 µM | IC50 (MDA-MB-231 [2]): 6.56 µM | Activity (Mitochondrial membrane [15]): Active | Activity (Mitochondrial membrane [16]): Active | Activity (Mitochondrial membrane [17]): Active
Compound: COc1ccc2c(c1OC)C(=O)O[C@@H]2[C@H]1c2c(c(NC(=O)Nc3ccc(Cl)cc3Cl)c3c(c2OC)OCO3)CCN1C
IC50 at 72 h [3]: 338 µM | inhibition (MDA-MB-231 [5]): Dose-dependent-effect | Activity (MDA-MB-231 [6]): Active | Activity (MDA-MB-231 [7]): Active | Activity (MDA-MB-231 [8]): Active | Activity (MDA-MB-231 [9]): 22% | Activity (MDA-MB-231 [10]): 68% | Activity (MDA-MB-231 [11]): Active | Activity (MDA-MB-231 [12]): Active | Activity (MDA-MB-231 [13]): Active | Activity (MDA-MB-231 [14]): Active | Activity (MCF7 [18]): 0.34 cm3 | Activity [19]: Non-toxic | Activity [20]: Non-toxic | Activity [21]: Non-toxic | Activity [22]: Non-toxic | Activity [23]: Non-toxic | Activity [24]: Non-toxic | Activity [25]: Non-toxic | Activity [26]: Non-toxic | Activity [27]: Non-toxic | Activity [28]: Non-toxic | Activity [29]: 106.86 U/L | Activity [30]: 0.702 mg/dL | Activity [31]: 28.62 U/L | Activity [32]: 78.45 U/L | Activity [33]: 12.11 mg/dL | Activity [34]: 0.56 mg/dL | Activity [35]: 0.32 mg/dL | Activity [36]: 3.08 mg/dL | Activity [37]: 6.19 g/dL | Activity [38]: 6.56 g/dL | Activity [39]: 0.48% | Activity [40]: 0.9% | Activity [41]: 98.37 mg/dL | Activity [42]: 7.9 mg/dL | Activity [43]: 144.4 mEq/L | Activity [44]: 3.3 mEq/L | Activity [45]: 106.71 mEq/L | Activity [46]: 4.59 10^3 /uL | Activity [47]: 6.29 10^6 /uL | Activity [48]: 14.6 g/dL | Activity [49]: 39.29% | Activity [50]: 58.1 fL | Activity [51]: 29.7 pg | Activity [52]: 34.74 g/dL | Activity [53]: 89.07 10^3 /uL
